From PubChem BioAssay (NCI)
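Step 1: Grow cells in 96-well plates. Step 2: Expose to compound for 48 hours at 5 concentrations. Step 3: Interpolate endpoints linearly; if unreached, use highest concentration. GI50 is the concentration that inhibits growth by half. TGI is the concentration that stops growth completely.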

Key:
Assay in all cases: NCI anticancer screen, dose series, 48 h
NCI-H23 lung = tested on: NCI-H23 lung
SK-OV-3 ovarian = tested on: SK-OV-3 ovarian
MDA-MB-435 = tested on: MDA-MB-435
HL-60(TB) leukemia = tested on: HL-60(TB) leukemia
HOP-92 NSCLC = tested on: HOP-92 NSCLC
SNB-19 CNS = tested on: SNB-19 CNS
KM12 colon = tested on: KM12 colon
NCI-H226 lung = tested on: NCI-H226 lung
SF-539 CNS = tested on: SF-539 CNS
BT-549 breast = tested on: BT-549 breast
786-0 renal = tested on: 786-0 renal
A498 renal = tested on: A498 renal
OVCAR-5 ovarian = tested on: OVCAR-5 ovarian
OVCAR-3 ovarian = tested on: OVCAR-3 ovarian
SF-268 CNS = tested on: SF-268 CNS
DU-145 prostate = tested on: DU-145 prostate
RPMI-8226 leukemia = tested on: RPMI-8226 leukemia
COLO 205 colon = tested on: COLO 205 colon
SW-620 colon = tested on: SW-620 colon
CCRF-CEM leukemia = tested on: CCRF-CEM leukemia
SF-295 CNS = tested on: SF-295 CNS
UACC-257 melanoma = tested on: UACC-257 melanoma
ACHN renal = tested on: ACHN renal
SK-MEL-5 melanoma = tested on: SK-MEL-5 melanoma
OVCAR-8 ovarian = tested on: OVCAR-8 ovarian
NCI-H522 lung = tested on: NCI-H522 lung
M14 melanoma = tested on: M14 melanoma
EKVX NSCLC = tested on: EKVX NSCLC
HT29 colon = tested on: HT29 colon
IGROV1 ovarian = tested on: IGROV1 ovarian
MCF7 breast = tested on: MCF7 breast
T-47D breast = tested on: T-47D breast
A549 NSCLC = tested on: A549 NSCLC
HOP-62 NSCLC = tested on: HOP-62 NSCLC
SN12C renal = tested on: SN12C renal
NCI/ADR-RES ovarian = tested on: NCI/ADR-RES ovarian
HCT-116 colon = tested on: HCT-116 colon
LOX IMVI melanoma = tested on: LOX IMVI melanoma
PC-3 prostate = tested on: PC-3 prostate
SR leukemia = tested on: SR leukemia
CAKI-1 renal = tested on: CAKI-1 renal
RXF 393 renal = tested on: RXF 393 renal
HCT-15 colon = tested on: HCT-15 colon
K-562 leukemia = tested on: K-562 leukemia
MOLT-4 leukemia = tested on: MOLT-4 leukemia
MALME-3M melanoma = tested on: MALME-3M melanoma
SK-MEL-2 melanoma = tested on: SK-MEL-2 melanoma
U251 CNS = tested on: U251 CNS
UACC-62 melanoma = tested on: UACC-62 melanoma
UO-31 renal = tested on: UO-31 renal
MDA-MB-468 breast = tested on: MDA-MB-468 breast
NCI-H460 lung = tested on: NCI-H460 lung
TK-10 renal = tested on: TK-10 renal
HS 578T breast = tested on: HS 578T breast
SNB-75 CNS = tested on: SNB-75 CNS
HCC-2998 colon = tested on: HCC-2998 colon
MDA-MB-231 breast = tested on: MDA-MB-231 breast
SK-MEL-28 melanoma = tested on: SK-MEL-28 melanoma
OVCAR-4 ovarian = tested on: OVCAR-4 ovarian

c1ccc(C(=C(c2ccc(OCCN3CCCCC3)cc2)c2ccc(OCCN3CCCCC3)cc2)C2CCCC2)cc1
GI50 (NCI-H23 lung): 5.16 µM | TGI (NCI-H23 lung): 17.9 µM | GI50 (SK-OV-3 ovarian): 4.27 µM | TGI (SK-OV-3 ovarian): 11.8 µM | GI50 (MDA-MB-435): 2.59 µM | TGI (MDA-MB-435): 5.37 µM | GI50 (HL-60(TB) leukemia): 1.68 µM | TGI (HL-60(TB) leukemia): 5.42 µM | GI50 (HOP-92 NSCLC): 2.57 µM | TGI (HOP-92 NSCLC): 5.85 µM | GI50 (SNB-19 CNS): 4.39 µM | TGI (SNB-19 CNS): 14.6 µM | GI50 (KM12 colon): 3.45 µM | TGI (KM12 colon): 6.48 µM | GI50 (NCI-H226 lung): 3.32 µM | TGI (NCI-H226 lung): 13.3 µM | GI50 (SF-539 CNS): 2.88 µM | TGI (SF-539 CNS): 5.4 µM | GI50 (BT-549 breast): 2.8 µM | TGI (BT-549 breast): 5.38 µM | GI50 (786-0 renal): 5.54 µM | TGI (786-0 renal): > 18 µM | GI50 (A498 renal): > 18 µM | TGI (A498 renal): > 18 µM | GI50 (OVCAR-5 ovarian): 4.67 µM | TGI (OVCAR-5 ovarian): > 18 µM | GI50 (OVCAR-3 ovarian): 3.05 µM | TGI (OVCAR-3 ovarian): 5.85 µM | GI50 (SF-268 CNS): 3.53 µM | TGI (SF-268 CNS): 9.09 µM | GI50 (DU-145 prostate): 4.25 µM | TGI (DU-145 prostate): 10.5 µM | GI50 (RPMI-8226 leukemia): 3.44 µM | TGI (RPMI-8226 leukemia): 8.24 µM | GI50 (COLO 205 colon): 3.24 µM | TGI (COLO 205 colon): 6.71 µM | GI50 (SW-620 colon): 2.76 µM | TGI (SW-620 colon): 5.35 µM | GI50 (CCRF-CEM leukemia): 3 µM | TGI (CCRF-CEM leukemia): 6.55 µM | GI50 (SF-295 CNS): 5.14 µM | TGI (SF-295 CNS): > 18 µM | GI50 (UACC-257 melanoma): 4.11 µM | TGI (UACC-257 melanoma): 12 µM | GI50 (ACHN renal): > 18 µM | TGI (ACHN renal): > 18 µM | GI50 (SK-MEL-5 melanoma): 2.73 µM | TGI (SK-MEL-5 melanoma): 5.23 µM | GI50 (OVCAR-8 ovarian): 6.93 µM | TGI (OVCAR-8 ovarian): > 18 µM | GI50 (NCI-H522 lung): 2.61 µM | TGI (NCI-H522 lung): 5.9 µM | GI50 (M14 melanoma): 3.43 µM | TGI (M14 melanoma): 8.04 µM | GI50 (EKVX NSCLC): 8.68 µM | TGI (EKVX NSCLC): > 18 µM | GI50 (HT29 colon): 3.1 µM | TGI (HT29 colon): 6.24 µM | GI50 (IGROV1 ovarian): 2.98 µM | TGI (IGROV1 ovarian): 5.65 µM | GI50 (MCF7 breast): 1.93 µM | TGI (MCF7 breast): 4.52 µM | GI50 (T-47D breast): 3.98 µM | TGI (T-47D breast): 15.4 µM | GI50 (A549 NSCLC): 3.29 µM | TGI (A549 NSCLC): 7.96 µM | GI50 (HOP-62 NSCLC): 5.01 µM | TGI (HOP-62 NSCLC): > 18 µM | GI50 (SN12C renal): 4.08 µM | TGI (SN12C renal): 11.8 µM | GI50 (NCI/ADR-RES ovarian): > 18 µM | TGI (NCI/ADR-RES ovarian): > 18 µM | GI50 (HCT-116 colon): 3.48 µM | TGI (HCT-116 colon): 6.82 µM | GI50 (LOX IMVI melanoma): 2.94 µM | TGI (LOX IMVI melanoma): 5.43 µM | GI50 (PC-3 prostate): 3.58 µM | TGI (PC-3 prostate): 7.79 µM | GI50 (SR leukemia): 2.99 µM | TGI (SR leukemia): 8.46 µM | GI50 (CAKI-1 renal): 7.87 µM | TGI (CAKI-1 renal): > 18 µM | GI50 (RXF 393 renal): 2.91 µM | TGI (RXF 393 renal): 7.11 µM | GI50 (HCT-15 colon): > 18 µM | TGI (HCT-15 colon): > 18 µM | GI50 (K-562 leukemia): 1.64 µM | TGI (K-562 leukemia): > 18 µM | GI50 (MOLT-4 leukemia): 2.59 µM | TGI (MOLT-4 leukemia): 7.72 µM | GI50 (MALME-3M melanoma): 2.69 µM | TGI (MALME-3M melanoma): 5.1 µM | GI50 (SK-MEL-2 melanoma): 3.78 µM | TGI (SK-MEL-2 melanoma): 9.2 µM | GI50 (U251 CNS): 3.56 µM | TGI (U251 CNS): 8.23 µM | GI50 (UACC-62 melanoma): 2.9 µM | TGI (UACC-62 melanoma): 5.35 µM | GI50 (UO-31 renal): > 18 µM | TGI (UO-31 renal): > 18 µM | GI50 (MDA-MB-468 breast): 2.38 µM | TGI (MDA-MB-468 breast): 5.19 µM | GI50 (NCI-H460 lung): 2.82 µM | TGI (NCI-H460 lung): 5.41 µM | GI50 (TK-10 renal): 8.11 µM | TGI (TK-10 renal): > 18 µM | GI50 (HS 578T breast): 3.76 µM | TGI (HS 578T breast): 11.8 µM | GI50 (SNB-75 CNS): 1.97 µM | TGI (SNB-75 CNS): 13.8 µM | GI50 (HCC-2998 colon): 2.83 µM | TGI (HCC-2998 colon): 5.33 µM | GI50 (MDA-MB-231 breast): 2.94 µM | TGI (MDA-MB-231 breast): 6.01 µM | GI50 (SK-MEL-28 melanoma): 3.03 µM | TGI (SK-MEL-28 melanoma): 5.81 µM | GI50 (OVCAR-4 ovarian): 5.7 µM | TGI (OVCAR-4 ovarian): > 18 µM
